ChEMBL document CHEMBL5390317, “Novel Indane-Containing NBTIs with Potent Anti-Gram-Negative Activity and Minimal hERG Inhibition” (ACS Med Chem Lett, 2023)
Converted amounts (≈) assume the structure as drawn.

Assays:
Staphylococcus aureus [1] = assay: Antibacterial activity against Staphylococcus aureus ATCC BAA-1556 assessed as inhibition in bacterial growth incubated for 20 to 24 hrs by CLSI based broth microdilution method; format: functional; details: Staphylococcus aureus, ATCC BAA-1556, time 20-24 hrs; read-out: MIC
[2] = biological target: Voltage-gated inwardly rectifying potassium channel KCNH2 (Homo sapiens, UniProt Q12809); assay: (§1) Inhibition of hERG potassium channel expressed in CHO cells by electrophysiological patch clamp assay; format: toxicity, cell-based
Chain of Voltage-gated inwardly rectifying potassium channel KCNH2 (Q12809 whole entry): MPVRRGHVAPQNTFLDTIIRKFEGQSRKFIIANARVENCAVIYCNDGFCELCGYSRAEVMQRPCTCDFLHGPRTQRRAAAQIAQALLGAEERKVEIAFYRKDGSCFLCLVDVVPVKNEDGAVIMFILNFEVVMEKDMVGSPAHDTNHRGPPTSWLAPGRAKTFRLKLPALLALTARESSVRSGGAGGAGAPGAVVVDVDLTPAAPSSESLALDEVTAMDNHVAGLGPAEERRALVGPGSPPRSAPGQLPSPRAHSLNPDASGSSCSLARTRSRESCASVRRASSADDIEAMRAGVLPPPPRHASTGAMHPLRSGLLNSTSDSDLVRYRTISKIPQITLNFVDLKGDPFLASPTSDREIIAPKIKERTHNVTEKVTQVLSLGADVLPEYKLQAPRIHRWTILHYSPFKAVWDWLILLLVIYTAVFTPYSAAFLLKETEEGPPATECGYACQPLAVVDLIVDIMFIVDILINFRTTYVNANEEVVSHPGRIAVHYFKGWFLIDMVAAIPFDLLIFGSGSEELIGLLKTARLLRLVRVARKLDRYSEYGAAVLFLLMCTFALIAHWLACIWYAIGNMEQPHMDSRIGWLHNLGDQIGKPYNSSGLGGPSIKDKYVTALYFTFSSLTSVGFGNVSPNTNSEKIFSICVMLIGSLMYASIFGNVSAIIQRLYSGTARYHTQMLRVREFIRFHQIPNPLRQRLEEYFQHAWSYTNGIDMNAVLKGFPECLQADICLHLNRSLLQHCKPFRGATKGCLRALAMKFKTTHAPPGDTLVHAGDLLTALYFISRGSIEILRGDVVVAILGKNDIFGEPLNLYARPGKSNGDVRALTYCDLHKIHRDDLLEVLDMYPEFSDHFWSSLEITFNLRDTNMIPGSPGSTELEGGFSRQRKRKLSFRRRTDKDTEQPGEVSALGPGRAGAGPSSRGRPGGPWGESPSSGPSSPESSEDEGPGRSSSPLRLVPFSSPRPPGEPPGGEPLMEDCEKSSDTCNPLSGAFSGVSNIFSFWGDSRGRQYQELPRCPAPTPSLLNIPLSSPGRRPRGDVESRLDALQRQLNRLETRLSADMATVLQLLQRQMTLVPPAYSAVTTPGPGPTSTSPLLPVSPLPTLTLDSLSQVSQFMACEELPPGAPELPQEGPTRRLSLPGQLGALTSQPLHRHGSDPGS

hERG (KCNH2) [3] = biological target: T1, hERG (KCNH2) (Homo sapiens, UniProt Q12809); assay: Inhibition of hERG potassium channel expressed in CHO cells at 1 uM by electrophysiological patch clamp assay relative to control; format: toxicity, cell-based; details: CHO cells expressing hERG
T1 sequence (Q12809 whole entry): as above

[4] = Stability in human plasma; format: ADME, cell-free
[5] = Stability in rat plasma; format: ADME, cell-free
Pseudomonas aeruginosa [6] = assay: Antibacterial activity against Pseudomonas aeruginosa NCTC 13437 assessed as inhibition in bacterial growth incubated for 20 to 24 hrs by CLSI based broth microdilution method; format: functional; details: Pseudomonas aeruginosa, NCTC 13437, time 20-24 hrs; read-out: MIC
Escherichia coli [7] = assay: Antibacterial activity against Escherichia coli ATCC BAA-2340 assessed as inhibition in bacterial growth incubated for 20 to 24 hrs by CLSI based broth microdilution method; format: functional; details: Escherichia coli, ATCC BAA-2340, time 20-24 hrs; read-out: MIC
Klebsiella pneumoniae [8] = assay: Antibacterial activity against Klebsiella pneumoniae ATCC BAA-2146 assessed as inhibition in bacterial growth incubated for 20 to 24 hrs by CLSI based broth microdilution method; format: functional; details: Klebsiella pneumoniae, ATCC BAA-2146, time 20-24 hrs; read-out: MIC
DNA gyrase = DNA gyrase (Escherichia coli, UniProt P0AES4+P0AES6); assay: Inhibition of Escherichia coli DNA gyrase incubated for 80 mins by Transcreener ADP2 FI assay; format: protein-complex assay
[9] = Inhibition of Escherichia coli topoisomerase 4 incubated for 120 mins by Transcreener ADP2 FI assay
Acinetobacter baumannii [10] = assay: Antibacterial activity against Acinetobacter baumannii ATCC BAA-747 assessed as inhibition in bacterial growth incubated for 20 to 24 hrs by CLSI based broth microdilution method; format: functional; details: Acinetobacter baumannii, ATCC BAA-747, time 20-24 hrs; read-out: MIC
Escherichia coli [11] = assay: Antibacterial activity against Escherichia coli K-12 BW25113 deltaTolC assessed as inhibition in bacterial growth incubated for 20 to 24 hrs by CLSI based broth microdilution method; format: functional; details: time 20-24 hrs
Klebsiella pneumoniae [12] = assay: Antibacterial activity against Klebsiella pneumoniae ATCC 700603 assessed as inhibition in bacterial growth incubated for 20 to 24 hrs by CLSI based broth microdilution method; format: functional; details: Klebsiella pneumoniae, ATCC 700603, time 20-24 hrs; read-out: MIC
Escherichia coli [13] = assay: Antibacterial activity against Escherichia coli ATCC 25922 assessed as inhibition in bacterial growth incubated for 20 to 24 hrs by CLSI based broth microdilution method; format: functional; details: time 20-24 hrs
Klebsiella pneumoniae [14] = assay: Antibacterial activity against Klebsiella pneumoniae ATCC 10031 assessed as inhibition in bacterial growth incubated for 20 to 24 hrs by CLSI based broth microdilution method; format: functional; details: time 20-24 hrs
hERG (KCNH2) [15] = biological target: T1, hERG (KCNH2); assay: Inhibition of hERG potassium channel expressed in CHO cells at 10 uM by electrophysiological patch clamp assay relative to control; format: toxicity, cell-based; details: CHO cells expressing hERG
Escherichia coli [16] = assay: Antibacterial activity against Escherichia coli ATCC 35218 assessed as inhibition in bacterial growth incubated for 20 to 24 hrs by CLSI based broth microdilution method; format: functional; details: Escherichia coli, ATCC 35218, time 20-24 hrs; read-out: MIC
[17] = Stability in mouse plasma; format: ADME, cell-free
Pseudomonas aeruginosa [18] = assay: Antibacterial activity against Pseudomonas aeruginosa NCTC 11451 assessed as inhibition in bacterial growth incubated for 20 to 24 hrs by CLSI based broth microdilution method; format: functional; details: Pseudomonas aeruginosa, NCTC 11451, time 20-24 hrs; read-out: MIC
Klebsiella pneumoniae [19] = assay: Antibacterial activity against Klebsiella pneumoniae ATCC BAA-1705 assessed as inhibition in bacterial growth incubated for 20 to 24 hrs by CLSI based broth microdilution method; format: functional; details: time 20-24 hrs
Acinetobacter baumannii [20] = assay: Antibacterial activity against Acinetobacter baumannii ATCC 51432 assessed as inhibition in bacterial growth incubated for 20 to 24 hrs by CLSI based broth microdilution method; format: functional; details: Acinetobacter baumannii, ATCC 51432, time 20-24 hrs; read-out: MIC
Pseudomonas aeruginosa [21] = assay: Antibacterial activity against Pseudomonas aeruginosa ATCC 27853 assessed as inhibition in bacterial growth incubated for 20 to 24 hrs by CLSI based broth microdilution method; format: functional; details: time 20-24 hrs
Staphylococcus aureus [22] = assay: Antibacterial activity against Staphylococcus aureus ATCC 29213 assessed as inhibition in bacterial growth incubated for 20 to 24 hrs by CLSI based broth microdilution method; format: functional; details: Staphylococcus aureus, ATCC 29213; time 20-24 hrs; read-out: MIC
Escherichia coli [23] = assay: Antibacterial activity against Escherichia coli K-12 BW25113 assessed as inhibition in bacterial growth incubated for 20 to 24 hrs by CLSI based broth microdilution method; format: functional; details: Escherichia coli, K-12 BW25113, time 20-24 hrs; read-out: MIC
Acinetobacter baumannii [24] = assay: Antibacterial activity against Acinetobacter baumannii ATCC 19606 assessed as inhibition in bacterial growth incubated for 20 to 24 hrs by CLSI based broth microdilution method; format: functional; details: time 20-24 hrs
hERG (KCNH2) [25] = biological target: T1, hERG (KCNH2); assay: as §1; format: toxicity, cell-based; details: human, CHO cells expressing hERG

C[C@H](C(=O)Nc1cc(F)c2c(c1)CC(CNCCC1CN(c3cnc4c(n3)NC(=O)CO4)C(=O)O1)C2)N(C)C (stereo in doubt; 2e)
MIC (Staphylococcus aureus [1]): 0.5 mg/L (≈ 0.923 µM)
IC50 [2]: > 20 µM
IC20 ([2]; human, cho): > 10 µM
inhibition at 1 µM (hERG (KCNH2) [3]): < 1%
Stability [4]: Stable
Stability [5]: Stable
MIC (Pseudomonas aeruginosa [6]): 2 mg/L (≈ 3.69 µM)
MIC (Escherichia coli [7]): 0.25 mg/L (≈ 0.462 µM)
MIC (Klebsiella pneumoniae [8]): 16 mg/L (≈ 29.5 µM)
IC50 (DNA gyrase): 0.038 µM
IC50 [9]: 0.008 µM
MIC (Acinetobacter baumannii [10]): 0.125 mg/L (≈ 0.231 µM)
MIC (Escherichia coli [11]): ≤ 0.06 mg/L
MIC (Klebsiella pneumoniae [12]): 2 mg/L (≈ 3.69 µM)
MIC (Escherichia coli [13]): 0.125 mg/L (≈ 0.231 µM)
MIC (Klebsiella pneumoniae [14]): ≤ 0.06 mg/L
inhibition at 10 µM (hERG (KCNH2) [15]): < 1%
MIC (Escherichia coli [16]): 0.25 mg/L (≈ 0.462 µM)
Stability [17]: Stable
MIC (Pseudomonas aeruginosa [18]): 2 mg/L (≈ 3.69 µM)
MIC (Klebsiella pneumoniae [19]): 2 mg/L (≈ 3.69 µM)
MIC (Acinetobacter baumannii [20]): 8 mg/L (≈ 14.8 µM)
MIC (Pseudomonas aeruginosa [21]): 1 mg/L (≈ 1.85 µM)
MIC (Staphylococcus aureus [22]): 0.25 mg/L (≈ 0.462 µM)
MIC (Escherichia coli [23]): ≤ 0.06 mg/L
MIC (Acinetobacter baumannii [24]): 4 mg/L (≈ 7.39 µM)

CN(C)C(C)(C)C(=O)Nc1cc(F)c2c(c1)CC(CNCCC1CN(c3cnc4c(n3)NC(=O)CO4)C(=O)O1)C2 (stereo not given)
MIC (Staphylococcus aureus [1]): 0.25 mg/L (≈ 0.45 µM)
IC20 (hERG (KCNH2) [25]): 3 µM
IC50 [2]: 8.2 µM
inhibition at 1 µM (hERG (KCNH2) [3]): 5%
Stability [4]: Stable
Stability [5]: Stable
MIC (Pseudomonas aeruginosa [6]): 4 mg/L (≈ 7.2 µM)
MIC (Escherichia coli [7]): 0.25 mg/L (≈ 0.45 µM)
MIC (Klebsiella pneumoniae [8]): 4 mg/L (≈ 7.2 µM)
IC50 (DNA gyrase): 0.043 µM
IC50 [9]: 0.013 µM
MIC (Acinetobacter baumannii [10]): ≤ 0.06 mg/L
MIC (Escherichia coli [11]): ≤ 0.06 mg/L
MIC (Klebsiella pneumoniae [12]): 4 mg/L (≈ 7.2 µM)
MIC (Escherichia coli [13]): 0.125 mg/L (≈ 0.225 µM)
MIC (Klebsiella pneumoniae [14]): ≤ 0.06 mg/L
inhibition at 10 µM (hERG (KCNH2) [15]): 57%
MIC (Escherichia coli [16]): 0.25 mg/L (≈ 0.45 µM)
Stability [17]: Stable
MIC (Pseudomonas aeruginosa [18]): 4 mg/L (≈ 7.2 µM)
MIC (Klebsiella pneumoniae [19]): 2 mg/L (≈ 3.6 µM)
MIC (Acinetobacter baumannii [20]): 4 mg/L (≈ 7.2 µM)
MIC (Pseudomonas aeruginosa [21]): 1 mg/L (≈ 1.8 µM)
MIC (Staphylococcus aureus [22]): ≤ 0.06 mg/L
MIC (Escherichia coli [23]): ≤ 0.06 mg/L
MIC (Acinetobacter baumannii [24]): 2 mg/L (≈ 3.6 µM)

N#CCOc1cc(F)c2c(c1)CC(CNCCC1CN(c3ccc4c(n3)NC(=O)CO4)C(=O)O1)C2 (stereo not given)
MIC (Staphylococcus aureus [1]): 0.25 mg/L (≈ 0.519 µM)
IC20 (hERG (KCNH2) [25]): 0.066 µM
IC50 [2]: 0.23 µM
inhibition at 1 µM (hERG (KCNH2) [3]): 84%
MIC (Pseudomonas aeruginosa [6]): 4 mg/L (≈ 8.31 µM)
MIC (Escherichia coli [7]): 1 mg/L (≈ 2.08 µM)
MIC (Klebsiella pneumoniae [8]): 8 mg/L (≈ 16.6 µM)
IC50 (DNA gyrase): 0.081 µM
IC50 [9]: 0.031 µM
MIC (Acinetobacter baumannii [10]): 0.125 mg/L (≈ 0.26 µM)
MIC (Escherichia coli [11]): ≤ 0.06 mg/L
MIC (Klebsiella pneumoniae [12]): 4 mg/L (≈ 8.31 µM)
MIC (Escherichia coli [13]): 0.5 mg/L (≈ 1.04 µM)
MIC (Klebsiella pneumoniae [14]): ≤ 0.06 mg/L
inhibition at 10 µM (hERG (KCNH2) [15]): 98%
MIC (Escherichia coli [16]): 0.5 mg/L (≈ 1.04 µM)
MIC (Pseudomonas aeruginosa [18]): 8 mg/L (≈ 16.6 µM)
MIC (Klebsiella pneumoniae [19]): 4 mg/L (≈ 8.31 µM)
MIC (Acinetobacter baumannii [20]): 1 mg/L (≈ 2.08 µM)
MIC (Pseudomonas aeruginosa [21]): 4 mg/L (≈ 8.31 µM)
MIC (Staphylococcus aureus [22]): 0.125 mg/L (≈ 0.26 µM)
MIC (Escherichia coli [23]): 0.25 mg/L (≈ 0.519 µM)
MIC (Acinetobacter baumannii [24]): 0.5 mg/L (≈ 1.04 µM)
